Test results reported in patent publication US8383581B2, “Short-chain peptides as parathyroid hormone (PTH) receptor agonist” (Cadila Healthcare Limited, priority 2009, dated 2013).
Where a SMILES comes first, the peptide text is derived from it. [ ]: non-standard residue; d: D form. ξ: configuration not given here. ξBip(2'-Et-4'-OMe) = CCc1cc(OC)ccc1-c1ccc(CC(N)C(=O)O)cc1; ξαMePhe(2,6-F2) = CC(N)(Cc1c(F)cccc1F)C(=O)O; ξαMePhe(2-F) = CC(N)(Cc1ccccc1F)C(=O)O; hArg = N=C(N)NCCCC[C@H](N)C(=O)O; hCit = NC(=O)NCCCC[C@H](N)C(=O)O; Cit = NC(=O)NCCC[C@H](N)C(=O)O; ξhhPhe = NC(CCCc1ccccc1)C(=O)O; ξαMeF = CC(N)(Cc1ccccc1)C(=O)O; Nle = CCCC[C@H](N)C(=O)O; Orn = NCCC[C@H](N)C(=O)O; ξαMeP = CC1(C(=O)O)CCCN1; Aib = CC(C)(N)C(=O)O

Legend:
[1] = system: ovariectomised (OVX) rats; assay: In vivo anti-osteoporosis activity testing in OVX rat model (serum calcium, phosphate, bone parameters); parameters: species or system Female Wistar Rats; conditions: po
Excerpt: c) In Vivo Anti-Osteoporosis Activity Testing in OVX Rat Model: The ovariectomised (OVX) rats were used to study anti-osteoporosis activity of test compounds (short-chain peptides) in vivo. The OVX rats develop osteopenia due to ovarian hormone deficiency. Osteopenia can be detected as early as 14 days post OVX, increase for the next 100 days and then stabilised (Wronski T. J., et al., Calcif. Tissue Int., 43(3), 1988, 179-183). Detailed Study Protocol to Evaluate the Effects of Anabolic Therapy on Bone Markers and Histomorphometry in OVX Animals: 10 to 11 weeks old Female Wistar Rats (150-200 g) were used. The animals were kept in individually ventilated cages in a room with controlled temperature (23°±3° C.), lighting (12:12 h light-dark cycle) and relative humidity (55±10%). Animals had free access to standard rat chow and water. Protocol for use of animals for conducting this study has been reviewed and approved by Institutional Animal Ethics Committee (IAEC). The animals were marked with picric acid for identification and acclimatized to experimental room conditions for 2 days prior to initiation of the study. For the induction of osteoporosis, rats were bilaterally ovariectomised under anesthesia. For Ovariectomy, Incision was made on dorsa-lateral side near lumbar region of animal. After that, ovary was excised and the veins were tied with ligature before removing ovary to prevent blood loss. Then incision was sutured back with ligature. After Bilateral ovariectomy, animals were allowed to rest for 4 weeks. They were then divided into different groups (n=9) based on their body weight. The groups consisted of a no treatment control, PTH as standard and one or two groups of test compounds (short-chain peptides). The treatment was given for the duration of 6 weeks. At the last day of treatment animals were kept overnight in metabolic cages under fasting for the collection of Urine. Next day, blood was collected after 24 hours of last dosing and animals were sacrificed. Changes in biochemical parameters and bone turnover parameters (Increase in serum Calcium and decrease in Phosphate levels, Acid Phosphatase and TRAP) were evaluated in the urine and serum. After sacrificing, intact femur and tibial bones are removed and cleaned from adherent tissues, muscles and tendons; weighed and collected in formal saline (10% formaldehyde solution). Lumbar vertebra (L5) was excised, carefully cleaned and collected in formal saline. Femur, tibia and Lumbar vertebra-5 (L5) were later processed for histomorphometric evaluation (Zhang L., et al., Tohoku J Exp Med., 1998, 186(2), 131-41; Tanizawa T., et al., Toxicol Lett., 1998, 102, 399-403).

[2] = Stability of peptides in human plasma; type: in vitro ADME; conditions: human, plasma; for metabolised at 24 h, 2 μM: pH 7.8
Outline: (§1)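 Peptides at 2 μM final incubated 0–24 h at 37 °C (50 mM triethanolamine-HCl, pH 7.8) in each matrix, matrix level set to degrade ~50% PTH(1-34) in 1 h; TFA-quenched, C18 HPLC at 206 nm with ESI-MS peak identification; percent degradation from peak areas at each time point.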

[3] = Stability of peptides in simulated gastric fluid (pH 1.5; HCl, NaCl and Pepsin); type: in vitro ADME; conditions: pH 1.5; for % degradation of peptides in 24 h when incubated with simulated gastric fluid: 2 μM; for half-life: simulated gi fluid
[4] = Stability of peptides in simulated intestinal fluid (pH 7.5); type: in vitro ADME; conditions: pH 7.5; for half-life: simulated gi fluid; for % degradation of peptides in 24 h when incubated with simulated intestinal fluid: 2 μM
Outline: as §1

[5] = Stability of peptides in human liver microsomes; type: in vitro ADME; conditions: human, microsomes; for % degradation of peptides in 24 h when incubated with liver microsomes: 2 μM, pH 7.8
Outline: as §1

Row | SMILES | % decrease in serum PO4 Levels (mg/dl) vs control ([1]; 5 mg/kg) [%] | % increase in serum Ca^2+ Levels (mg/dl) vs control ([1]; 5 mg/kg) [%] | metabolised at 24 h, 2 μM [2] [%] | % degradation of peptides in 24 h when incubated with simulated gastric fluid [3] [%] | half-life [3] [h] | half-life [4] [h] | % degradation of peptides in 24 h when incubated with simulated intestinal fluid [4] [%] | half-life [5] [h] | % degradation of peptides in 24 h when incubated with liver microsomes [5] [%] | also measured
1 | CC[C@H](C)[C@H](NC(=O)[C@H](CCC(=O)O)NC(=O)C(C)(C)NC(=O)[C@@H](NC(=O)C(C)(C)N)C(C)C)C(=O)N[C@@H](CCC(N)=O)C(=O)N[C@@H](CC(C)C)C(=O)N[C@@H](CCSC)C(=O)N[C@@H](Cc1c[nH]cn1)C(=O)N[C@@H](CCC(N)=O)C(=O)N[C@@H](CCCCNC(=N)N)C(=O)N1CCCC1(C)C(=O)N[C@@H](CCCCN)C(=O)NC(C)(Cc1ccccc1)C(N)=O (stereo partly shown) [Seq. ID. 7] (H-[Aib]V[Aib]EIQLMHQ[hArg][ξαMeP]K[ξαMeF]-NH2) |  |  |  |  |  |  |  |  |  | % decrease in serum PO4 Levels (mg/dl) vs control ([1]; 1 mg/kg): 88%; % increase in serum Ca^2+ Levels (mg/dl) vs control ([1]; 1 mg/kg): 90%
2 | CCCC[C@H](NC(=O)[C@H](CC(C)C)NC(=O)[C@H](CCC(N)=O)NC(=O)[C@@H](NC(=O)[C@H](CCC(=O)O)NC(=O)C(C)(C)NC(=O)[C@@H](NC(=O)C(C)(C)N)C(C)C)[C@@H](C)CC)C(=O)N[C@@H](Cc1c[nH]cn1)C(=O)N[C@@H](CCC(N)=O)C(=O)NC(C)(Cc1c(F)cccc1F)C(=O)N[C@@H](C)C(=O)NC(C)(C)C(=O)NC(Cc1ccc(-c2ccc(OC)cc2CC)cc1)C(=O)NC(CCCc1ccccc1)C(N)=O (stereo partly shown) [Seq. ID. 798] (H-[Aib]V[Aib]EIQL[Nle]HQ[ξαMePhe(2,6-F2)]A[Aib][ξBip(2'-Et-4'-OMe)][ξhhPhe]-NH2) | 82 | 88 |  |  |  |  |  |  |  | 
3 | CCCC[C@H](NC(=O)C(C)(Cc1c(F)cccc1F)NC(=O)[C@H](CCC(N)=O)NC(=O)[C@@H](NC(=O)[C@H](CCC(=O)O)NC(=O)C(C)(C)NC(=O)[C@@H](NC(=O)C(C)(C)N)C(C)C)[C@@H](C)CC)C(=O)N[C@@H](Cc1c[nH]cn1)C(=O)N[C@@H](CCC(N)=O)C(=O)N[C@@H](CCCN)C(=O)N[C@@H](C)C(=O)N[C@@H](CCCNC(N)=O)C(=O)NC(C)(Cc1c(F)cccc1F)C(N)=O (stereo partly shown) [Seq. ID. 293] (H-[Aib]V[Aib]EIQ[ξαMePhe(2,6-F2)][Nle]HQ[Orn]A[Cit][ξαMePhe(2,6-F2)]-NH2) | 75 | 67 |  |  |  |  |  |  |  | 
4 | CCCC[C@H](NC(=O)C(C)(Cc1c(F)cccc1F)NC(=O)[C@H](CCC(N)=O)NC(=O)[C@@H](NC(=O)[C@H](CCC(=O)O)NC(=O)C(C)(C)NC(=O)[C@@H](NC(=O)C(C)(C)N)C(C)C)[C@@H](C)CC)C(=O)N[C@@H](Cc1c[nH]cn1)C(=O)N[C@@H](CCC(N)=O)C(=O)N[C@@H](CCCCNC(N)=O)C(=O)NC(C)(C)C(=O)NC(C)(C)C(=O)NC(C)(Cc1ccccc1F)C(N)=O (stereo partly shown) [Seq. ID. 430] (H-[Aib]V[Aib]EIQ[ξαMePhe(2,6-F2)][Nle]HQ[hCit][Aib][Aib][ξαMePhe(2-F)]-NH2) |  |  | 0 | 45 | 4 | > 24 | 00 | 2 | 85 | half-life [2]: > 24 h
5 | CCCC[C@H](NC(=O)C(C)(Cc1ccccc1F)NC(=O)[C@H](CCC(N)=O)NC(=O)[C@@H](NC(=O)[C@H](CCC(=O)O)NC(=O)C(C)(C)NC(=O)[C@@H](NC(=O)C(C)(C)N)C(C)C)[C@@H](C)CC)C(=O)N[C@@H](Cc1c[nH]cn1)C(=O)N[C@@H](CCC(N)=O)C(=O)N[C@@H](CCCN)C(=O)NC(C)(C)C(=O)N[C@@H](CCCNC(N)=O)C(=O)NC(C)(Cc1c(F)cccc1F)C(N)=O (stereo partly shown) [Seq. ID. 290] (H-[Aib]V[Aib]EIQ[ξαMePhe(2-F)][Nle]HQ[Orn][Aib][Cit][ξαMePhe(2,6-F2)]-NH2) |  |  | 75 | 100 | 0.5 | 0.5 | 100 | 0.5 | 100 | half-life (t1/2) in human plasma [2]: (9) h
